The values that follow come from patent publication US4863920A, “Imidazodiazepine derivatives for treatment of disorders of the central nervous system” (Hoffmann-La Roche Inc., priority 1987, dated 1989).

Series [1] has as its system diazepam effect in the pentetrazole test. Nature of the series: Antagonism of diazepam in the pentetrazole test. The series is classed as in vivo. The note with it: Mus musculus, po; mice; diazepam 5 mg/kg i.p. one hour before and compound p.o. 15 minutes before pentetrazole 120 mg/kg i.p.; read-out: Antagonism of diazepam ED 50. The protocol: This property was used to elaborate the test described hereinafter which permits the investigation of compounds capable of antagonizing the central properties of 1,4-benzodiazepines having tranquillizing activity.
(§1) The antagonistic activity of the compounds investigated, that is, their capability to counteract the effect of the diazepam in the pentetrazole test, is determined by counting the mice which suffer spasmodic seizures in this test. The ED50 denotes the amount of the respective test compound in mg/kg (p.o.) which in 50% of the animals counteracts the diazepam effect in the above test.

Series [2] deals with central benzodiazepine receptors (cerebral cortex). Kind of series: Affinity to benzodiazepine receptors (inhibition of tritiated diazepam binding in cerebral cortex). The note with it: inhibition of specific binding of tritiated diazepam, read-out: Affinity to benzodiazepine receptors IC 50. The protocol:
The affinity of compounds of formula I to the central benzodiazepine receptors was determined according to the method described in Life Science 20, 2101-2110 (1977) and Science 198, 849-851 (1977). According to this method, the inhibition of the binding of tritiated diazepam at the specific benzodiazepine receptors in the cerebral cortex by the respective test substances is ascertained. The IC50 ("50% inhibiting concentration") is that concentration of the respective test substance which brings about a 50 percent inhibition of the specific binding of the tritiated diazepam at the specific benzodiazepine receptors in the cerebral cortex.

The nature of series [3]: Acute toxicity, single oral administration to rats. The conditions noted are these: rat, in vivo, read-out: Toxicity LD 50. The text has this: The results which have been obtained with representative members of the class of compound defined by formula I in the experiments described previously are compiled in the following Table. Moreover, the Table contains data concerning the acute toxicity of some of these compounds (LD50 in mg/kg in the case of single oral administration to rats).

Series [4] relates to pentetrazole-induced spasmodic seizures. Nature of the series: Antipentetrazole test (protection from pentetrazole seizures). The series is classed as in vivo. The conditions noted are these: Rattus norvegicus, po; female rats 60-80 g; p.o. 30 minutes before 120 mg/kg pentetrazole i.p.; 10 animals per dosage; Probit; read-out: Antipemtetrazole test ED 50. The method, then:
The central properties of the compounds of formula I in accordance with the invention can be determined, for example, in the antipentetrazole animal model which is described hereinafter and which is generally recognized for recording anticonvulsant properties.
In this animal model, the compound under investigation is administered orally to female rats weighing 60-80 g and 30 minutes later there are administered i.p. 120 mg/kg of pentetrazole, which causes emprosthotonus and tonic stretchings of the fore and/or hind limbs in unprotected experimental animals 1-4 minutes after the injection. Ten experimental animals are used per dosage of test substance. After counting the protected experimental animals the ED50 is determined according to the Probit method. The ED50 is that dosage which protects 50% of the experimental animals from the spasmodic seizures caused by pentetrazole.

For series [5] the test system is unchanged. Kind of series: Pentetrazole test, protection by diazepam. It is filed as in vivo. The conditions noted are these: 5 mg/kg (i.p.) diazepam, supramaximal dosage; more than 900 mice. The method, then: as §1

Regarding `C#Cc1ncn2c1CN(C)C(=O)c1c(Cl)cccc1-2` [A, 7-chloro-3-ethynyl-4,5-dihydro-5-methyl-6H-imidazo[1,5-a][1,4]benzodiazepin-6-one], the ED50 in series [1] is 0.24 mg/kg. Moreover, the IC50 in series [2] stood at 4.5 nM. Also, the LD50 in series [3] was in the range of 312 to 625 mg/kg.

In the case of `CC#Cc1ncn2c1CN(C)C(=O)c1c(Cl)cccc1-2` [C, 7-chloro-4,5-dihydro-5-methyl-3-(1-propynyl)-6H-imidazo[1,5-a][1,4]benzodiazepin-6-one], the ED50 in series [1] stood at 0.36 mg/kg. The IC50 in series [2] worked out at 2.3 nM. In series [3], the LD50 was more than 5000 mg/kg.

`CN1Cc2c(C#CC(C)(C)O)ncn2-c2cccc(Br)c2C1=O` [E, 7-bromo-4,5-dihydro-3-(3-hydroxy-3-methyl-1-butynyl)-5-methyl-6H-imidazo[1,5-a][1,4]benzodiazepin-6-one]: the ED50 in series [4] came to 0.29 mg/kg. Moreover, in series [2], the IC50 was 2 nM. Moreover, the LD50 in series [3] was 500 to 1000 mg/kg.

For `CN1C(=O)CN=C(c2ccccc2)c2cc(Cl)ccc21` [diazepam], the “protection from spasmodic seizures in the pentetrazole test” value in series [5] is listed as “protected all experimental animals from spasmodic seizures”.

On to `C=Cc1ncn2c1CN(C)C(=O)c1c(Cl)cccc1-2` [F, 7-chloro-4,5-dihydro-5-methyl-3-vinyl-6H-imidazo[1,5-a][1,4]benzodiazepin-6-one], for which the ED50 in series [1] was 1.2 mg/kg. Besides, the IC50 in series [2] amounted to 7.6 nM. For the same molecule, the LD50 in series [3] was in the range of 1250 to 2500 mg/kg.

For `C#Cc1ncn2c1CN(C)C(=O)c1cc(F)ccc1-2` [B, 3-ethynyl-8-fluoro-4,5-dihydro-5-methyl-6H-imidazo[1,5-a][1,4]benzodiazepine-6-one], the ED50 in series [1] amounted to 1.5 mg/kg. Further, the IC50 in series [2] is 24 nM. The LD50 in series [3] is 312 to 625 mg/kg.

Turning to `C#Cc1ncn2c1[C@@H]1CCCN1C(=O)c1c(Cl)cccc1-2` [D, (S)-8-chloro-1-ethynyl-11,12,13,13a-tetrahydro-9H-imidazo[1,5-a]pyrrolo[2,1-c][1,4]benzodiazepin-9-one], the ED50 is 1.5 mg/kg in series [4] and more than 50 mg/kg in series [1]. Further, the IC50 in series [2] was found to be 2.4 nM. The LD50 in series [3] was more than 4000 mg/kg.
